From the supplement of paper PMC10307832

How the values were obtained:
Assay in all cases: relative viability (nuclei count vs DMSO), 5 days (fraction); higher = more cells survive
Bosutinib + Bortezomib = compound: COc1cc(Nc2c(C#N)cnc3cc(OCCCN4CCN(C)CC4)c(OC)cc23)c(Cl)cc1Cl [Bosutinib] + CC(C)C[C@H](NC(=O)[C@H](Cc1ccccc1)NC(=O)c1cnccn1)B(O)O [Bortezomib] (partner 0.002 µM)
Procedure, shortened: (§1)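 The day after seeding in 1536-well plates, lung cancer cell lines were treated by pin tool with a single drug, or with a fixed anchor-drug dose together with five library-drug doses (not always all listed) in √10 steps. After 5 days, a combined fix-and-stain solution (final 0.05% Triton X-100, 1% formaldehyde, 1 ug/ml Hoechst) was added. Nuclei counted on 4× images gave relative viability as treated counts over vehicle counts, reported as the median of duplicate plates.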

Bosutinib + Navitoclax = compound: COc1cc(Nc2c(C#N)cnc3cc(OCCCN4CCN(C)CC4)c(OC)cc23)c(Cl)cc1Cl [Bosutinib] + CC1(C)CCC(c2ccc(Cl)cc2)=C(CN2CCN(c3ccc(C(=O)NS(=O)(=O)c4ccc(N[C@H](CCN5CCOCC5)CSc5ccccc5)c(S(=O)(=O)C(F)(F)F)c4)cc3)CC2)C1 [Navitoclax] (partner 0.5 µM)
Procedure, shortened: as §1

Bosutinib + OSI-027 = compound: COc1cc(Nc2c(C#N)cnc3cc(OCCCN4CCN(C)CC4)c(OC)cc23)c(Cl)cc1Cl [Bosutinib] + COc1cccc2cc(-c3nc([C@H]4CC[C@H](C(=O)O)CC4)n4ncnc(N)c34)[nH]c12 [OSI-027] (partner 0.5 µM)
Procedure, shortened: as §1

Bosutinib + Lapatinib = compound: COc1cc(Nc2c(C#N)cnc3cc(OCCCN4CCN(C)CC4)c(OC)cc23)c(Cl)cc1Cl [Bosutinib] + CS(=O)(=O)CCNCc1ccc(-c2ccc3ncnc(Nc4ccc(OCc5cccc(F)c5)c(Cl)c4)c3c2)o1 [Lapatinib] (partner 2 µM)
Procedure, shortened: as §1

Bosutinib + Pictilisib = compound: COc1cc(Nc2c(C#N)cnc3cc(OCCCN4CCN(C)CC4)c(OC)cc23)c(Cl)cc1Cl [Bosutinib] + CS(=O)(=O)N1CCN(Cc2cc3nc(-c4cccc5[nH]ncc45)nc(N4CCOCC4)c3s2)CC1 [Pictilisib] (partner 1 µM)
Procedure, shortened: as §1

Row | Cell Line | relative viability (Bosutinib + Bortezomib; first compound 0.01 µM) | relative viability (Bosutinib + Bortezomib; first compound 0.03162 µM) | relative viability (Bosutinib + Bortezomib; first compound 0.1 µM) | relative viability (Bosutinib + Bortezomib; first compound 1 µM) | relative viability (Bosutinib + Navitoclax; first compound 0.01 µM) | relative viability (Bosutinib + Navitoclax; first compound 0.03162 µM) | relative viability (Bosutinib + Navitoclax; first compound 0.1 µM) | relative viability (Bosutinib + Navitoclax; first compound 1 µM) | relative viability (Bosutinib + OSI-027; first compound 0.01 µM) | relative viability (Bosutinib + OSI-027; first compound 0.03162 µM) | relative viability (Bosutinib + OSI-027; first compound 0.1 µM) | relative viability (Bosutinib + OSI-027; first compound 1 µM) | relative viability (Bosutinib + Lapatinib; first compound 0.01 µM) | relative viability (Bosutinib + Lapatinib; first compound 0.03162 µM) | relative viability (Bosutinib + Lapatinib; first compound 0.1 µM) | relative viability (Bosutinib + Lapatinib; first compound 1 µM) | relative viability (Bosutinib + Pictilisib; first compound 0.01 µM) | relative viability (Bosutinib + Pictilisib; first compound 0.03162 µM) | relative viability (Bosutinib + Pictilisib; first compound 0.1 µM) | relative viability (Bosutinib + Pictilisib; first compound 1 µM)
1 | COR-L 105 | 0.778 | 0.9 | 0.705 | 0.446 | 0.808 | 0.825 | 0.84 | 0.492 | 0.623 | 0.669 | 0.698 | 0.479 | 0.384 | 0.403 | 0.391 | 0.3 | 0.423 | 0.442 | 0.387 | 0.393
2 | NCI-H2228 | 1.03 | – | 1.16 | 1.12 | 0.84 | – | 1.03 | 0.732 | 0.489 | 0.533 | 0.577 | 0.609 | 1.19 | – | 1.18 | 1.04 | 0.451 | – | 0.229 | 0.297
3 | NCI-H838 | 0.97 | 0.794 | 0.78 | 0.577 | 1.14 | 1.14 | 1.07 | 0.637 | 0.43 | 0.45 | 0.361 | 0.317 | 1.18 | 0.94 | 0.922 | 0.604 | 0.468 | 0.429 | 0.414 | 0.319
4 | EMC-BAC-2 | 1.03 | 0.943 | 1.07 | 1.06 | 1.2 | 1.1 | 1.15 | 1.15 | 0.388 | 0.383 | 0.385 | 0.37 | 0.878 | 0.835 | 0.86 | 0.873 | 0.576 | 0.507 | 0.52 | 0.506
5 | LU99A | 1.16 | 1.17 | 1.33 | 0.938 | 0.769 | 0.878 | 0.782 | 1.06 | 0.313 | 0.332 | 0.32 | 0.343 | 1.05 | 1.01 | 0.976 | 0.876 | 0.324 | 0.321 | 0.375 | 0.345
6 | PC-3 [JPC-3] | 0.8 | 0.773 | 0.765 | 0.77 | 0.856 | 0.797 | 0.807 | 0.768 | 0.812 | 0.685 | 0.745 | 0.54 | 0.432 | 0.428 | 0.431 | 0.505 | 0.756 | 0.726 | 0.73 | 0.59
7 | NCI-H596 | 1 | 0.967 | 1.11 | 1.02 | 1.06 | 0.86 | 1.18 | 0.785 | 0.743 | 0.738 | 0.639 | 0.496 | 1.07 | 0.991 | 1.07 | 1.1 | 0.398 | 0.369 | 0.405 | 0.392
